Source: PubChem BioAssay (NCI)
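Interpolation was linear, between the two tested concentrations surrounding the appropriate level; five concentrations were tested over 48 hours in 96-well plates. GI50: concentration for 50% inhibition of growth. TGI is the concentration that stops growth completely.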

How the values were obtained:
Experiment in all cases: NCI tumour cell line growth inhibition, 48 h
MCF7 breast = tested on: MCF7 breast
BT-549 breast = tested on: BT-549 breast
T-47D breast = tested on: T-47D breast
DU-145 prostate = tested on: DU-145 prostate
DLD-1 colon = tested on: DLD-1 colon
DMS 273 small cell lung = tested on: DMS 273 small cell lung
KM20L2 colon = tested on: KM20L2 colon
SN12K1 renal = tested on: SN12K1 renal
M19-MEL melanoma = tested on: M19-MEL melanoma
P388 leukemia = tested on: P388 leukemia
DMS 114 small cell lung = tested on: DMS 114 small cell lung
XF 498 CNS = tested on: XF 498 CNS
SNB-78 CNS = tested on: SNB-78 CNS
LXFL 529 NSCLC = tested on: LXFL 529 NSCLC
HOP-18 NSCLC = tested on: HOP-18 NSCLC
MDA-N = tested on: MDA-N
MDA-MB-231 breast = tested on: MDA-MB-231 breast

Row | Compound | TGI (MCF7 breast) [µM] | TGI (BT-549 breast) [µM] | TGI (T-47D breast) [µM] | TGI (DU-145 prostate) [µM] | TGI (DLD-1 colon) [µM] | TGI (DMS 273 small cell lung) [µM] | TGI (MDA-N) [µM] | TGI (MDA-MB-231 breast) [µM] | other results
1 | CCOc1ccc(/C=C2\N=C(c3ccccc3)OC2=O)cc1 | > 100 | > 100 |  |  |  |  |  |  | 
2 | C/C(=N/NC(=O)c1ccncc1)C(F)(F)F | > 100 | > 100 | > 100 | > 100 |  |  |  |  | 
3 | NCCCCCC(CCN)SCC1OC(n2cnc3c(N)ncnc32)C(O)C1O (configuration not stated) | > 1500 |  |  |  | > 1500 | > 1090 |  |  | TGI (KM20L2 colon): > 1500 µM; TGI (SN12K1 renal): > 1500 µM; TGI (M19-MEL melanoma): > 1500 µM; TGI (P388 leukemia): > 1500 µM; TGI (DMS 114 small cell lung): > 1500 µM; TGI (XF 498 CNS): > 15 µM; TGI (SNB-78 CNS): > 1500 µM
4 | COc1cccc2c1C(=O)c1c(O)c3c(c(O)c1C2=O)C[C@@](O)(C(=O)CO)CC3OC1CC(N(C)CCOCC(OC(C)=O)OC(C)=O)C(O)C(C)O1 (some centres not stated) |  |  |  |  | > 0.01 |  |  |  | TGI (KM20L2 colon): > 0.01 µM; TGI (M19-MEL melanoma): > 0.01 µM; TGI (LXFL 529 NSCLC): > 0.01 µM; TGI (DMS 114 small cell lung): > 0.01 µM; TGI (XF 498 CNS): > 0.01 µM; TGI (HOP-18 NSCLC): > 0.01 µM
5 | COC(=O)/C=C1\SC2(OC1=Nc1ccccc1)C1CC3CC(C1)CC2C3 (configuration not stated) | > 100 | > 100 |  |  |  |  | > 100 | > 100 | 
6 | C[N+]1(C)C2CC(OC(=O)C(CO)c3ccccc3)CC1C1OC12 (configuration not stated) | > 100 | > 100 | > 100 | > 100 |  |  | > 100 | > 100 | 
7 | O=C1c2cc(Br)ccc2-c2ccc3c4ccc5c6c(ccc(c7ccc1c2c73)c64)C(=O)c1cc(Br)ccc1-5 | > 100 | > 100 | > 100 | > 100 |  |  |  | > 100 | 
8 | CC(=O)CCC#Cc1ccccc1C(=O)C(C)=[N+]=[N-] |  |  |  |  | > 100 | 90.1 |  |  | TGI (KM20L2 colon): > 100 µM; TGI (DMS 114 small cell lung): 42 µM; TGI (XF 498 CNS): 89.3 µM; TGI (HOP-18 NSCLC): > 100 µM
9 | O=C1C=CC2(C=C1)O[C@H](COCc1ccccc1)[C@@H](COCc1ccccc1)O2 | 2.3 | 2.37 | 6.99 | 12.5 |  |  | 3.53 | 12.8 | 
10 | COc1ccc(-c2cc(N3CCN(c4ccc(Cl)cc4)CC3)c(C#N)c(=O)o2)cc1 |  |  |  |  | > 100 | 34.4 |  |  | TGI (KM20L2 colon): > 100 µM; TGI (LXFL 529 NSCLC): 70.5 µM; TGI (DMS 114 small cell lung): 25.6 µM; TGI (XF 498 CNS): 7.76 µM; TGI (HOP-18 NSCLC): 44.3 µM; TGI (SNB-78 CNS): 34.2 µM
11 | O=C(O)c1ccccc1CN1CCCC(C(=O)O)C1 (configuration not stated) | > 100 | > 100 | > 100 | > 100 |  |  | > 100 | > 100 | 
12 | CC[C@@H]1/C=C/C=C/C[C@H](C)[C@@H](O)[C@@H](C)C(=O)[C@H](C)[C@@H](O)[C@H](C)C(=O)[C@H](C)[C@@H](O)[C@H](C)/C=C/C(=O)O[C@H]2[C@@H](C)[C@@H](CC1)O[C@@]1(CC[C@@H](C)[C@@H](CC(C)O)O1)[C@@H]2C (some centres not stated) | 7.49 | 24.4 |  | > 11.8 |  |  | > 17.6 | > 17.4 | 
13 | CN1C2CCC1/C(=C/c1cccc3c1OCO3)C(=O)/C2=C\c1cccc2c1OCO2 |  |  |  |  | > 100 | > 100 |  |  | TGI (KM20L2 colon): > 100 µM; TGI (M19-MEL melanoma): > 100 µM; TGI (LXFL 529 NSCLC): > 100 µM; TGI (DMS 114 small cell lung): > 100 µM; TGI (XF 498 CNS): > 100 µM
14 | Cc1cccc2cc(/C=C/C(=O)/C=C/c3ccc(Cl)cc3)c(=O)[nH]c12 |  |  |  |  |  |  |  | > 100 | GI50 (MDA-MB-231 breast): 3.71 µM
15 | NC(Cc1ccc(CP(=O)(O)O)cc1)C(=O)O (configuration not stated) | > 100 |  | > 100 | > 100 |  |  | > 100 | > 100 | 
16 | Fc1ccc(Nc2nc(Cl)c3[nH]cnc3n2)cc1Cl | > 100 | > 100 | > 100 | > 100 |  |  | > 100 | > 100 | 
17 | O=C(O)C(Cc1cc(I)c(O)c(I)c1)C1CCCCC1 (configuration not stated) |  | > 100 | > 100 | > 100 |  |  | > 100 | 72.5 | 
18 | C=C=C[P+](c1ccccc1)(c1ccccc1)c1ccccc1 |  |  |  |  | > 100 | 54.8 |  |  | TGI (M19-MEL melanoma): 91.9 µM; TGI (LXFL 529 NSCLC): 20.8 µM; TGI (DMS 114 small cell lung): 29.9 µM; TGI (HOP-18 NSCLC): > 100 µM; TGI (SNB-78 CNS): 86 µM
19 | CCOC(=O)CC1=N/C(=N/C(=N)N[N+](=O)[O-])SC1 |  |  |  |  | > 100 | > 100 |  |  | TGI (KM20L2 colon): > 100 µM; TGI (M19-MEL melanoma): > 100 µM; TGI (LXFL 529 NSCLC): > 100 µM; TGI (HOP-18 NSCLC): > 100 µM; TGI (SNB-78 CNS): > 100 µM
20 | NC(N)=N/N=C\c1c(-c2cccc([N+](=O)[O-])c2)nc2sccn12 |  | 4.06 | 4.18 | 20.8 |  |  |  | 5.01 | 
21 | Nc1ccccc1N |  |  |  |  | > 100 | > 100 |  |  | TGI (M19-MEL melanoma): > 100 µM; TGI (LXFL 529 NSCLC): > 100 µM; TGI (HOP-18 NSCLC): > 100 µM
